Results taken from patent publication US20100298141A1, “SUBSTITUTED PYRIDINE N-OXIDE HERBICIDES” (E. I. DU PONT DE NEMOURS AND COMPANY, priority 2007, published 2010).

Experiments:
[1] = tested on: woolly cupgrass; assay: Test C pre-/postemergence test; assay type: in vivo, Eriochloa villosa; details: for Plant response rating (0 to 100), Cupgrass, Woolly: 250 g ai/ha
In short: (§1)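 Test chemicals were formulated with surfactant in a non-phytotoxic solvent and sprayed both on freshly planted seeds (preemergence) and on 1- to 4-leaf plants of 2–18 cm (postemergence). Flooded-paddy pots received compound directly into 3 cm of standing water, maintained for the test.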

[2] = tested on: green foxtail; assay: Test C pre-/postemergence test; assay type: in vivo, Setaria viridis; details: for Plant response rating (0 to 100), Foxtail, Green: 250 g ai/ha
In short: as §1

[3] = tested on: duck salad; assay: Test C flooded paddy test; assay type: in vivo, Heteranthera limosa; details: Flood
In short: (§2)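 Flooded 3 cm over soil; compound into paddy water; depth kept constant. Greenhouse 13–15 d.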

[4] = tested on: wheat; assay: Test C pre-/postemergence test; assay type: in vivo, Triticum aestivum
In short: as §1

[5] = tested on: crabgrass; assay: Test A pre-/postemergence greenhouse test; assay type: in vivo, Digitaria sanguinalis; details: for Crabgrass, Large plant response rating: 0 to 100 scale; for Plant response rating, Crabgrass, Large: 0 to 100 scale where 0 is no effect and 100 is complete control
In short: (§3)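 Pre: directed soil spray on seeded loam/sand. Post: foliar spray, plants 2–10 cm, 1–2 leaf stage, applied concurrently. Vehicle: non-phytotoxic solvent + surfactant. Greenhouse ~10 d; visual injury rating vs untreated controls.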

[6] = tested on: umbrella sedge; assay: Test C flooded paddy test; assay type: in vivo, Cyperus difformis; details: Flood
In short: as §2

[7] = tested on: blackgrass; assay: Test C pre-/postemergence test; assay type: in vivo, Alopecurus myosuroides; details: for Plant response rating (0 to 100), Blackgrass: 250 g ai/ha
In short: as §1

[8] = tested on: redroot pigweed; assay: Test A pre-/postemergence greenhouse test; assay type: in vivo, Amaranthus retroflexus; details: for Pigweed plant response rating: 0 to 100 scale
In short: as §3

[9] = tested on: morningglory; assay: Test A pre-/postemergence greenhouse test; assay type: in vivo, Ipomoea spp.; details: for Morningglory plant response rating: 0 to 100 scale; for Plant response rating, Morningglory: 0 to 100 scale where 0 is no effect and 100 is complete control
In short: as §3

[10] = tested on: yellow nutsedge; assay: Test C pre-/postemergence test; assay type: in vivo, Cyperus esculentus
In short: as §1

[11] = tested on: wild oat; assay: Test C pre-/postemergence test; assay type: in vivo, Avena fatua
In short: as §1

[12] = tested on: Italian ryegrass; assay: Test C pre-/postemergence test; assay type: in vivo, Lolium multiflorum
In short: as §1

[13] = tested on: eastern black nightshade; assay: Test C pre-/postemergence test; assay type: in vivo, Solanum ptycanthum
In short: as §1

[14] = tested on: corn; assay: Test C pre-/postemergence test; assay type: in vivo, Zea mays; details: for Plant response rating (0 to 100), Corn: 250 g ai/ha
In short: as §1

[15] = tested on: Goosegrass; assay: Test C pre-/postemergence test; assay type: in vivo, Eleusin indica; details: for Plant response rating (0 to 100), Goosegrass: 250 g ai/ha
In short: as §1

[16] = tested on: common ragweed; assay: Test C pre-/postemergence test; assay type: in vivo, Ambrosia elation
In short: as §1

[17] = tested on: common (oilseed) sunflower; assay: Test C pre-/postemergence test; assay type: in vivo, Helianthus annuus
In short: as §1

[18] = 62 g ai/ha, Preemergence, scale 0 to 100
[19] = Preemergence, 31 g ai/ha, scale 0 to 100 (0 no effect, 100 complete control)
[20] = 31 g ai/ha, scale 0 to 100 (0 no effect, 100 complete control)
[21] = 62 g ai/ha, scale 0 to 100, 0 no effect, 100 complete control, 13 to 15 days
[22] = 125 g ai/ha, scale 0 to 100, 0 no effect, 100 complete control, 13 to 15 days
[23] = 250 g ai/ha, scale 0 to 100 (0 no effect, 100 complete control)
[24] = Postemergence, 125 g ai/ha, 0 is no effect, 100 is complete control
[25] = Postemergence, 500 g ai/ha, 0 is no effect, 100 is complete control
[26] = Preemergence, 125 g ai/ha, 0 no effect, 100 complete control
[27] = preemergence, 125 g ai/ha, scale 0 (no effect) to 100 (complete control)
[28] = 31 g ai/ha, Preemergence, scale 0 to 100
[29] = 62 g ai/ha, preemergence, scale 0 (no effect) to 100 (complete control)

## Cc1cc[n+]([O-])c([S+]([O-])Cc2c(C(F)(F)F)nn(C)c2Cl)c1 (racemic) [Compound 20]
[1]; [18]
  Cupgrass, Woolly plant response rating: 70
[1]; [19]
  Plant response rating, Cupgrass, Woolly: 0
[1]; Preemergence
  Plant response rating (0 to 100), Cupgrass, Woolly: 100
[2]; [18]
  Foxtail, Green plant response rating: 100
[2]; [19]
  Plant response rating, Foxtail, Green: 98
[2]; Preemergence
  Plant response rating (0 to 100), Foxtail, Green: 100
[3]; [20]
  Plant response rating, Ducksalad: 0
[3]; [21]
  Plant response rating, Ducksalad: 0
[3]; [22]
  Plant response rating, Ducksalad: 0
[3]; [23]
  Plant response rating, Ducksalad: 75
[4]; [18]
  Wheat plant response rating: 70
[4]; [19]
  Plant response rating, Wheat: 0
[5]; [24]
  Crabgrass, Large plant response rating: 40
[5]; [25]
  Crabgrass, Large plant response rating: 80
[5]; [26]
  Crabgrass, Large plant response rating: 80
[5]; Preemergence, 500 g ai/ha
  Plant response rating, Crabgrass, Large: 100
[6]; [20]
  Plant response rating, Sedge, Umbrella: 0
[6]; [21]
  Plant response rating, Sedge, Umbrella: 0
[6]; [22]
  Plant response rating, Sedge, Umbrella: 85
[6]; 250 g ai/ha, scale 0 to 100, 0 no effect, 100 complete control, 13 to 15 days
  Plant response rating, Sedge, Umbrella: 85
[7]; [18]
  Blackgrass plant response rating: 98
[7]; [19]
  Plant response rating, Blackgrass: 70
[7]; Preemergence
  Plant response rating (0 to 100), Blackgrass: 100
[7]; [27]
  Blackgrass plant response rating: 100
[8]; [24]
  Pigweed plant response rating: 40
[8]; [25]
  Pigweed plant response rating: 70
[8]; [26]
  Pigweed plant response rating: 90
[8]; Preemergence, 500 g ai/ha, 0 to 100 scale where 0 is no effect and 100 is complete control
  Plant response rating, Pigweed: 100
[9]; [24]
  Morningglory plant response rating: 40
[9]; [25]
  Morningglory plant response rating: 60
[9]; [26]
  Morningglory plant response rating: 70
[9]; Preemergence, 500 g ai/ha
  Plant response rating, Morningglory: 80
[10]; [18]
  Nutsedge, Yellow plant response rating: 10
[10]; [19]
  Plant response rating, Nutsedge, Yellow: 0
[11]; [18]
  Oat, Wild plant response rating: 10
[11]; [19]
  Plant response rating, Oat, Wild: 0
[12]; [18]
  Ryegrass, Italian plant response rating: 60
[12]; [19]
  Plant response rating, Ryegrass, Italian: 30
[13]; [18]
  Nightshade plant response rating: 85
[13]; [19]
  Plant response rating, Nightshade: 80
[14]; [18]
  Corn plant response rating: 20
[14]; [19]
  Plant response rating, Corn: 0
[14]; Preemergence
  Plant response rating (0 to 100), Corn: 85
[14]; [27]
  Corn plant response rating: 50
[15]; [18]
  Goosegrass plant response rating: 100
[15]; [19]
  Plant response rating, Goosegrass: 85
[15]; Preemergence
  Plant response rating (0 to 100), Goosegrass: 100
[16]; [19]
  Plant response rating, Ragweed: 0
[17]; [18]
  Sunflower plant response rating: 0
[17]; [19]
  Plant response rating, Sunflower: 0

## Cn1nc(C(F)(F)F)c(C(Cl)S(=O)(=O)c2cccc[n+]2[O-])c1Cl (stereo not shown) [Compound 12]
[1]; [28]
  Cupgrass, Woolly plant response rating: 80
[1]; [29]
  Cupgrass, Woolly plant response rating: 100
[1]; Preemergence
  Plant response rating (0 to 100), Cupgrass, Woolly: 100
[1]; [27]
  Cupgrass, Woolly plant response rating: 100
[2]; [28]
  Foxtail, Green plant response rating: 100
[2]; Preemergence
  Plant response rating (0 to 100), Foxtail, Green: 100
[2]; [27]
  Foxtail, Green plant response rating: 100
[3]; [20]
  Plant response rating, Ducksalad: 40
[3]; [21]
  Plant response rating, Ducksalad: 95
[3]; [22]
  Plant response rating, Ducksalad: 100
[3]; [23]
  Plant response rating, Ducksalad: 100
[4]; [29]
  Wheat plant response rating: 0
[4]; Preemergence, 250 g ai/ha
  Plant response rating (0 to 100), Wheat: 20
[4]; [27]
  Wheat plant response rating: 0
[5]; [24]
  Crabgrass, Large plant response rating: 60
[5]; [25]
  Crabgrass, Large plant response rating: 70
[5]; [26]
  Crabgrass, Large plant response rating: 70
[5]; Preemergence, 500 g ai/ha
  Plant response rating, Crabgrass, Large: 100
[6]; [20]
  Plant response rating, Sedge, Umbrella: 90
[6]; [21]
  Plant response rating, Sedge, Umbrella: 95
[6]; [22]
  Plant response rating, Sedge, Umbrella: 100
[6]; [23]
  Plant response rating, Sedge, Umbrella: 100
[7]; [28]
  Blackgrass plant response rating: 0
[7]; [29]
  Blackgrass plant response rating: 98
[7]; Preemergence
  Plant response rating (0 to 100), Blackgrass: 100
[7]; [27]
  Blackgrass plant response rating: 98
[8]; [24]
  Pigweed plant response rating: 0
[8]; [25]
  Pigweed plant response rating: 0
[9]; [24]
  Morningglory plant response rating: 20
[9]; [25]
  Morningglory plant response rating: 30
[9]; [26]
  Morningglory plant response rating: 0
[9]; Preemergence, 500 g ai/ha
  Plant response rating, Morningglory: 60
[10]; [28]
  Nutsedge, Yellow plant response rating: 45
[10]; [29]
  Nutsedge, Yellow plant response rating: 70
[10]; Preemergence, 250 g ai/ha
  Plant response rating (0 to 100), Nutsedge, Yellow: 100
[10]; [27]
  Nutsedge, Yellow plant response rating: 90
[11]; [28]
  Oat, Wild plant response rating: 0
[11]; [29]
  Oat, Wild plant response rating: 0
[11]; Preemergence, 250 g ai/ha
  Plant response rating (0 to 100), Oat, Wild: 0
[11]; [27]
  Oat, Wild plant response rating: 0
[12]; [28]
  Ryegrass, Italian plant response rating: 0
[12]; [29]
  Ryegrass, Italian plant response rating: 70
[12]; Preemergence, 250 g ai/ha
  Plant response rating (0 to 100), Ryegrass, Italian: 85
[12]; [27]
  Ryegrass, Italian plant response rating: 70
[13]; [28]
  Nightshade plant response rating: 100
[13]; [29]
  Nightshade plant response rating: 100
[13]; Preemergence, 250 g ai/ha
  Plant response rating (0 to 100), Nightshade: 100
[13]; [27]
  Nightshade plant response rating: 100
[14]; [28]
  Corn plant response rating: 0
[14]; [29]
  Corn plant response rating: 0
[14]; Preemergence
  Plant response rating (0 to 100), Corn: 45
[14]; [27]
  Corn plant response rating: 0
[15]; [28]
  Goosegrass plant response rating: 100
[15]; [29]
  Goosegrass plant response rating: 100
[15]; Preemergence
  Plant response rating (0 to 100), Goosegrass: 100
[15]; [27]
  Goosegrass plant response rating: 100
[16]; [28]
  Ragweed plant response rating: 0
[16]; [29]
  Ragweed plant response rating: 0
[16]; Preemergence, 250 g ai/ha
  Plant response rating (0 to 100), Ragweed: 20
[17]; [29]
  Sunflower plant response rating: 0
[17]; Preemergence, 250 g ai/ha
  Plant response rating (0 to 100), Sunflower: 20
[17]; [27]
  Sunflower plant response rating: 0
